*1 amine or outer side, *2 acyl side, *3 side chain or, on linkers, in order; H or OH if unused. Where a SMILES comes first, the peptide text is derived from it. Bridges are numbered along the chain shown (N, C = ends). [ ]: non-standard residue; d: D form. NHCH2CMe2S = CC(C)(CN[*:1])S[*:2]
Assays:
[1] = target: KOP (Homo sapiens, UniProt P41145); assay: Inhibition of Forskolin-induced cAMP production in HEK-KOP cells (AlphaScreen, DP series); assay type: cell-based; conditions: for IC80: approximate IC80, 'EC anything' protocol; for cAMP response, HEK-KOP: concentration-response curve, % cAMP
Protocol: DP-7-11 and DP-7-12 were assessed for the ability to inhibit cAMP production in HEK-DOP and HEK KOP cells.
The HEK-293 DOP (HEK-DOP) and HEK-293 KOP (HEK-KOP) cell lines were cultured in a T75 flask, in Dulbeco's Modified Eagle's Medium (DMEM) complete with 10% (v/v) fetal bovine serum (FBS) and 1% (v/v) Geneticin. Cells were incubated in a humidified atmosphere of 37° C. (95% air and 5% CO2). Cells were passaged at 80-90% confluence and media was changed every two days.
Stimulation buffer and Lysis buffer were prepared fresh on the day of each assay. Stimulation buffer contained 19.5 mL Hanks buffered saline solution, Bovine serum albumin (BSA) 0.1% (w/v), 0.5 mM 3-Isobutyl-1-methylxanthine (IBMX) and 5 mM HEPES (4-(2-hydroxyethyl)-1-piperazineethanesulfonic acid). Lysis buffer contained 19 mL Mili-Q H2O, BSA 0.1% (w/v), 0.3% (v/v) 10% Tween-20, and 5 mM HEPES. Both buffers were adjusted to pH 7.4 with NaOH.
The cAMP standard dilution series was prepared from the 50 μM cAMP standard solution provided by the cAMP assay kit. The standard solution was vortexed before being serially diluted to provide a concentration range of 5×10^−6 M to 5×10^−11 M in ½ Log intervals.
For this assay, Forskolin was optimised at 50 μM/well. 25 mM stocks were used to prepare 0.2 mM Forskolin. The concentration of Forskolin prepared was 4 times the required concentration in the well to account for further dilution in the well. 0.1 mM Forskolin solution was then made from this and used to dilute the peptide solutions.
DP-7-11 and DP-7-12 provided in powder form and reconstituted to 10 mM stock solutions and diluted to 1 mM working stocks using Mili-Q H2O. Each peptide solution was serially diluted to give concentrations of 1×10^−6 to 3×10^−7 M with stimulation buffer.
Stimulation buffer was added to the 0.2 mM Forskolin solution in a 1:1 ratio to prepare the Forskolin only treatment solution. This was the positive control. Stimulation buffer was used as the negative control.
Cells were harvested from two T75 flasks on the day of experimentation. Identical protocol was used for both DOP and KOP cells. The cells were first removed from the incubator and washed with Versene®. The cells were then incubated in 2 mL of Versene® at 37° C. for 5 minutes. Following this, the mixture was made up to 5 mL with Versene® in a centrifuge tube. This was centrifuged at 1300 rpm for 2 minutes at 23° C. The supernatant was then decanted and the cells resuspended in 100 μL stimulation buffer for counting. A hemocytometer was used to count the cells. This assay required the concentration of cells to be 13300 cells/μL
This method was used to conduct all cAMP Alphascreen assays. The acceptor bead mixture consisted of acceptor beads and stimulation buffer mixed according to the ratio 1:35 given in the kit. From this, the acceptor beads mixture was used to prepare separate mixtures for the cAMP standard curve and for the treatment wells of the assay. For the treatment wells, the beads were mixed with cells in a 1:1 ratio. For the cAMP standard curve, the beads were mixed with more stimulation buffer in a 1:1 ratio. The donor bead mixture consisted of donor beads, biotinylated cAMP and lysis buffer mixed in the ratio 1:3:300.
The DP series compounds were assayed as follows: The assay was performed using a 96 well ½ area plate. The different cAMP standard solutions (3 μL/well) were plated in duplicate. The different concentrations of drug (3 μL/well), and control solutions (3 μL/well) were plated in triplicate. […]

[2] = Stability in cAMP buffer; assay type: physicochemical; conditions: over 60 minutes
Text: Select compounds were also screened for stability in cAMP buffer, to assess whether they degrade spontaneously in the cell assay environment, in the absence of cellular metabolic processes.

[3] = target: DOP (Homo sapiens, UniProt P41143); assay: In vitro cAMP activity at DOP (Table 10); assay type: cell-based; conditions: cAMP inhibition, four-parameter regression
Protocol: The CP series compounds were assayed as follows: The assay was performed using a 96 well ½ area plate. The different cAMP standard solutions (3 μL/well) were plated in duplicate. The different concentrations of drug (3 μL/well), and control solutions (3 μL/well) were plated in triplicate. Following this, the acceptor bead mixture (3 μL/well) was added to the respective sets—either cAMP standard curve or the treatment. This was covered and incubated on the orbital shaker for 60 minutes at 37° C. Then, the donor bead mixture (10 μL/well) was added to each well. This was incubated at room temperature overnight on the orbital shaker.
For DP-11-06 the assay was carried out in the same way as for the CP compounds except it was incubated for 30 mins at 37° C.
For the CP series compounds and DP-11-06, the Ensight® Multimode Plate Reader was used to quantify the fluorescence units of each plate. Before reading, each plate was centrifuged at 280 g for 30 seconds. Using GraphPad Prism7® Software, cAMP concentrations were determined by fit spline/LOWESS analysis. The cAMP standard curve was used for interpolation at this point. The cAMP concentrations were then normalized to the highest cAMP concentration recorded and analyzed by one-way ANOVA for multiple comparisons. The IC50 for each compound was then calculated using GraphPad Prism7® with non-linear regression analysis using four parameter curve fitting.
In this regard, a different regression analysis method was adopted on the above cAMP experiments. Particularly, a new non-linear regression (four-parameter) was adopted to better account for hill slope, thereby improving the regression fit.

Sequence of KOP (P41145 whole entry): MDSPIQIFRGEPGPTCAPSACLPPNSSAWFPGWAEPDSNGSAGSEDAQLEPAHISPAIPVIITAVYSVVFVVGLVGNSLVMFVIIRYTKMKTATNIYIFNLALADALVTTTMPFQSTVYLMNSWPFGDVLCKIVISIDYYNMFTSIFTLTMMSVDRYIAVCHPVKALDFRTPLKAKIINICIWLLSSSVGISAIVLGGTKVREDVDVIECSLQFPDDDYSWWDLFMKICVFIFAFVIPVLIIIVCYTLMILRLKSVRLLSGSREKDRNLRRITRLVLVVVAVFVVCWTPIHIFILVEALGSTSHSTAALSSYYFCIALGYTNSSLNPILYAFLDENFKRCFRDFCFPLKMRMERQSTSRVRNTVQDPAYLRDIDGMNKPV
Sequence of DOP (P41143 whole entry): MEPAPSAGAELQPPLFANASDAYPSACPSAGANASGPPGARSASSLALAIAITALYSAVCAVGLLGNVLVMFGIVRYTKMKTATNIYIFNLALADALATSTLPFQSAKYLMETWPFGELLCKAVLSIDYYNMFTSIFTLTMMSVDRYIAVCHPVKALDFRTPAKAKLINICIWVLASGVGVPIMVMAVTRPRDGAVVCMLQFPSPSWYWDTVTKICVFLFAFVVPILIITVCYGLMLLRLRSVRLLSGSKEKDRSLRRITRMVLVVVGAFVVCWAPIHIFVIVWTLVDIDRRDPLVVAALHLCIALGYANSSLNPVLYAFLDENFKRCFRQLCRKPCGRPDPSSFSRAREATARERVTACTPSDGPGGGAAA

In the case of `CC1(C)CNC(=O)C[C@@H](NC(=O)[C@@H](N)Cc2ccc(O)cc2)C(=O)NCC(=O)N[C@@H](Cc2ccccc2)C(=O)N[C@H](C(=O)N[C@@H](CCCNC(=N)N)C(=O)N[C@@H](CCCNC(=N)N)C(N)=O)CSS1` [DP-7-12, c(Tyr-D(Asp)-Gly-Phe-SSa-Arg-Arg)] (H-Y[dD]GFCRR-NH2; linker 2-5 via NHCH2CMe2S), the IC80 [1] is reported as 28.8 nM, the “cAMP response, HEK-KOP” value [1] is reported as 25.88% and the “Degradation in cAMP assay buffer” value [2] is reported as “no degradation”.

In the case of `CC1(C)CNC(=O)C[C@H](C(=O)N[C@@H](CCCNC(=N)N)C(=O)N[C@@H](CCCNC(=N)N)C(N)=O)NC(=O)[C@H](Cc2ccccc2)NC(=O)CNC(=O)[C@@H](NC(=O)[C@@H](N)Cc2ccc(O)cc2)CSS1` [DP-7-11, c(Tyr-SSa-Gly-Phe-D(Asp)-Arg-Arg)], the IC50 ([1]; Forskolin 50 μM/well, 95% CI in brackets) is reported as 5.06 nM, the IC80 [1] is reported as 30 nM and the “cAMP response, HEK-KOP” value [1] is reported as 13.73%. For the same molecule, the EC50 [3] was greater than 10000 nM.
